Where no end group is shown, it is not given here.

The assay relates to somatostatin receptor. Briefly: Rat pituitary assay for somatostatin receptor antagonists (cAMP content of GH4C1 cells). Type of assay: cell-based. Particulars: GH4C1 pituitary cell line; 100 nM VIP, 10 nM somatostatin 14.

In the case of `C[C@H](N)C(=O)NCC(=O)N[C@H]1CSSC[C@@H](C(=O)O)NC(=O)[C@H](CO)NC(=O)[C@H]([C@@H](C)O)NC(=O)[C@H](Cc2ccccc2)NC(=O)[C@H]([C@@H](C)O)NC(=O)[C@H](CCCCN)NC(=O)[C@H](Cc2c[nH]c3ccccc23)NC(=O)[C@H](Cc2ccccc2)NC(=O)[C@H](Cc2ccccc2)NC(=O)[C@H](CC(N)=O)NC(=O)[C@H](CCCCN)NC1=O` [somatostatin, somatostatin 14], the “cAMP content of the GH4C1 cells” value was “partial inhibition”.

As to “vasoactive intestinal peptide (HSDAVFTDNYTRLRKQMAVKKYLNSILN; ends and bridges not checked; UniProt P01282 125-152, looked up) [VIP, endogenous peptide that stimulates GH secretion]”, the “cAMP content of the GH4C1 cells” value is recorded as “increased cAMP content”.

The record behind these values is patent publication US6720330B2, “Somatostatin antagonists and agonists that act at the SST subtype 2 receptor” (Pfizer Inc., priority 2000, dated 2004).
